Experimental data from US10894775B2, “Piperidine derivatives as liver X receptor beta agonists, compositions, and their use” (Merck Sharp & Dohme Corp., priority 2016, dated 2021).
pEC50: −log10 of the molar value. Read-outs that look alike come from different tables or passages of the source.

How the values were obtained:
[1] = target: T1, glutathione-S-transferase (GST) tagged LXRalpha LBD (ligand binding domain) (Homo sapiens, UniProt Q13133); experiment: LanthaScreen TR-FRET Liver X Receptor Coactivator Assay, LXR alpha; type: biochemical; settings: for EC50: LXR alpha IP (nM); for EC50 / pEC50 / LXR alpha IP (nM): potency (Inflection Point) of compound-induced co-activator recruitment, TR-FRET; for Emax: read-out: LXR alpha actiivty at max dose (%); for pEC50: read-out: LXR alpha IP
T1 construct: purchased Invitrogen pv4655
T1 sequence (Q13133 209-447 limits assumed): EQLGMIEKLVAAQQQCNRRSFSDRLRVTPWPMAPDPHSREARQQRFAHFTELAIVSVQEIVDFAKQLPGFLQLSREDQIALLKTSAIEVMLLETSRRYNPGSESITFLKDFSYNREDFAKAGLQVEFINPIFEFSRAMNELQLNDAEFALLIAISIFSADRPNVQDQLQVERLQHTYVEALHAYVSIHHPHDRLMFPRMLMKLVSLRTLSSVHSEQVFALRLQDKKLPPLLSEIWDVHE
Protocol: (§1) While running the LanthaScreen™ TR-FRET Liver X Receptor Coactivator Assay, LXR alpha-LBD or LXR beta-LBD was added to ligand test compounds followed by addition of a mixture of a fluorescein-labelled coactivator peptide and terbium-conjugated anti-GST antibody. After an incubation period at room temperature, TR-FRET (time-resolved fluorescence resonance energy transfer) was measured using a filter-based instrument capable of TR-FRET, e.g. PerkinElmer Envision.

[2] = target: T2, glutathione-S-transferase (GST) tagged LXRbeta LBD (ligand binding domain) (Homo sapiens, UniProt P55055); experiment: LanthaScreen TR-FRET Liver X Receptor Coactivator Assay, LXR beta; type: biochemical; settings: for EC50: LXR beta IP (nM); for EC50 / pEC50: potency (Inflection Point) of compound-induced co-activator recruitment, TR-FRET; for Emax: read-out: LXR beta actiivty at max dose (%); for pEC50: read-out: LXR beta IP
T2 construct: purchased Invitrogen pv4658.pps
T2 sequence (P55055 222-460 limits assumed): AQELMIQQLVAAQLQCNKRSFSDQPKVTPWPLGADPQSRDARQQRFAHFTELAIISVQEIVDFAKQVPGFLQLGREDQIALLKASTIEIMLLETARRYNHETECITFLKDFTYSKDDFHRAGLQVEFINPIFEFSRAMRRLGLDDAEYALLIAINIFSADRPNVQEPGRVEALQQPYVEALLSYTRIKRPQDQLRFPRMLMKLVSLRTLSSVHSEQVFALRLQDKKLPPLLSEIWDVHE
Protocol: as §1

[3] = efficacy (Emax) in relation to reference dual agonist T0901317

| SMILES | Emax [1, 3] [%] | pEC50 [1] | LXR beta actiivty at max dose (%) [2, 3] [%] | pEC50 [2] | LXR alpha actiivty at max dose (%) [1, 3] [%] | Emax [2, 3] [%] | LXR alpha IP (nM) [1] | EC50 [1] [nM] | Emax [1] [%] | EC50 [2] [nM] | Emax [2] [%] |
| --- | --- | --- | --- | --- | --- | --- | --- | --- | --- | --- | --- |
| CN(C)C(=O)c1ccc(CCCC2CCN(C(=O)C(O)(c3ccccc3)C(F)(F)F)CC2)cc1Cl (single isomer, unassigned) [Example 15-1, (R or S)-2-chloro-N,N-dimethyl-4-(3-(1-(3,3,3-trifluoro-2-hydroxy-2-phenylpropanoyl)piperidin-4-yl)propyl)benzamide] |  |  |  |  |  |  |  | 1310 | 19 | 46 | 41 |
| CN(C)C(=O)c1ccc(CCCCC2CCN(C(=O)C(O)(c3ccccc3)C(F)(F)F)CC2)cc1Cl (single isomer, unassigned) [Example 15-2, (R or S)-2-chloro-N,N-dimethyl-4-(4-(1-(3,3,3-trifluoro-2-hydroxy-2-phenylpropanoyl)piperidin-4-yl)butyl)benzamide] | 20 | 6.21 | 95 | 7.55 |  |  |  |  |  |  |  |
| CN(C)C(=O)c1ccc(CCCCC2CCN(C(=O)C(O)(c3ccccc3)C(F)(F)F)CC2)cc1Cl (single isomer, unassigned) [Example 15-3, (S or R)-2-chloro-N,N-dimethyl-4-(4-(1-(3,3,3-trifluoro-2-hydroxy-2-phenylpropanoyl)piperidin-4-yl)butyl)benzamide] |  | 6.07 | 116 | 7.51 | 36 |  |  |  |  |  |  |
| COc1cccc(C(O)(C(=O)N2CCC(CCCCCc3ccc(C(=O)N(C)C)c(Cl)c3)CC2)C(F)(F)F)c1 (single isomer, unassigned) [Example 15-5, (R or S)-2-chloro-N,N-dimethyl-4-(5-(1-(3,3,3-trifluoro-2-hydroxy-2-(3-methoxyphenyl)propanoyl)piperidin-4-yl)pentyl)benzamide] | 22 | 6.29 |  | 7.80 |  | 75 |  |  |  |  |  |
| CNC(=O)c1ccc(CCCCCC2CCN(C(=O)C(O)(c3cccc(OC)c3)C(F)(F)F)CC2)cc1Cl (single isomer, unassigned) [Example 15-6, (R or S)-2-chloro-N-methyl-4-(5-(1-(3,3,3-trifluoro-2-hydroxy-2-(3-methoxyphenyl)propanoyl)piperidin-4-yl)pentyl)benzamide] | 27 | 6.42 |  | 8.22 |  | 96 |  |  |  |  |  |
| CNC(=O)c1ccc(CCCCCC2CCN(C(=O)C(O)(c3ccccc3)C(F)(F)F)CC2)cc1Cl (single isomer, unassigned) [Example 15-7, (R or S)-2-chloro-N-methyl-4-(5-(1-(3,3,3-trifluoro-2-hydroxy-2-phenylpropanoyl)piperidin-4-yl)pentyl)benzamide] | 40 | 6.49 |  | 8.22 |  | 93 |  |  |  |  |  |
| CN(C)C(=O)c1ccc(CCCCCC2CCN(C(=O)C(O)(c3ccccc3)C(F)(F)F)CC2)cc1Cl (single isomer, unassigned) [Example 15-8, (R or S)-2-chloro-N,N-dimethyl-4-(5-(1-(3,3,3-trifluoro-2-hydroxy-2-phenylpropanoyl)piperidin-4-yl)pentyl)benzamide] |  | 6.63 |  | 8.05 | 29 | 79 |  |  |  |  |  |
| CN(C)C(=O)c1ccc(CCCCCC2CCN(C(=O)C(O)(c3ccccc3)C(F)(F)F)CC2)cc1Cl (single isomer, unassigned) [Example 15-9, (S or R)-2-chloro-N,N-dimethyl-4-(5-(1-(3,3,3-trifluoro-2-hydroxy-2-phenylpropanoyl)piperidin-4-yl)pentyl)benzamide] |  |  | 84 | 6.62 | 4 |  | No IP |  |  |  |  |
| COc1cccc([C@@](O)(C(=O)N2CCC3(CC2)CC(CCCc2ccc(C(=O)N(C)C)c(Cl)c2)C3)C(F)(F)F)c1 (single isomer, unassigned) [Example 16-1, 2-chloro-N,N-dimethyl-4-(3-(7-((R or S)-3,3,3-trifluoro-2-hydroxy-2-(3-methoxyphenyl)propanoyl)-7-azaspiro 13.51 nonan-2-yl)propyl)benzamide] |  |  |  |  |  |  |  | 1540 | 19 | 132 | 100 |
| CN(C)C(=O)c1ccc(CCCC2CC3(CCN(C(=O)C(O)(c4ccccc4)C(F)(F)F)CC3)C2)cc1Cl (single isomer, unassigned) [Example 16-2, 2-chloro-N,N-dimethyl-4-(3-(7-((R or S)-3,3,3-trifluoro-2-hydroxy-2-phenylpropanoyl)-7-azaspiro[3.5]nonan-2-yl)propyl)benzamide] | 29 | 6.11 |  | 7.23 |  | 113 |  |  |  |  |  |
| CN(C)C(=O)c1ccc(CCCC2CC3(CCN(C(=O)C(O)(c4cccc(OC(F)(F)F)c4)C(F)(F)F)CC3)C2)cc1Cl (single isomer, unassigned) [Example 16-4, 2-chloro-N,N-dimethyl-4-(3-(7-((S or R)-3,3,3-trifluoro-2-hydroxy-2-(3-(trifluoromethoxy)phenyl)propanoyl)-7-azaspiro[3.5]nonan-2-yl)propyl)benzamide] | 8 |  |  | 7.24 |  | 96 | No IP |  |  |  |  |
| COc1cccc(C(O)(C(=O)N2CCC3(CCC(Cc4ccc(C(=O)N(C)C)c(Cl)c4)CC3)CC2)C(F)(F)F)c1 (single isomer, unassigned) [Example 18-1, 2-chloro-N,N-dimethyl-4-((3-((R or S)-3,3,3-trifluoro-2-hydroxy-2-(3-methoxyphenyl)propanoyl)-3-azaspiro[5.5]undecan-9-yl)methyl)benzamide] | 21 | 6.13 |  |  |  |  |  |  |  | 72 | 65 |
| COc1cccc(C(O)(C(=O)N2CCC3(CCC(Sc4ccc(C(=O)N(C)C)c(Cl)c4)CC3)CC2)C(F)(F)F)c1 (single isomer, unassigned) [Example 19-1, 2-chloro-N,N-dimethyl-4-(3-((R or S)-3,3,3-trifluoro-2-hydroxy-2-(3-methoxyphenyl)propanoyl)-3-azaspiro[5.5]undecan-9-ylthio)benzamide] | 23 | 5.98 |  |  |  |  |  |  |  | 58 | 101 |

Now from value to compound, other results behind:

| Emax [1, 3] [%] | pEC50 [1] | LXR beta actiivty at max dose (%) [2, 3] [%] | pEC50 [2] | LXR alpha actiivty at max dose (%) [1, 3] [%] | Emax [2, 3] [%] | LXR alpha IP (nM) [1] | SMILES | EC50 [1] [nM] | Emax [1] [%] | EC50 [2] [nM] | Emax [2] [%] |
| --- | --- | --- | --- | --- | --- | --- | --- | --- | --- | --- | --- |
| 0 |  |  | 7.92 |  | 51 | No IP | COc1cccc([C@@](O)(C(=O)N2CCC3(CC2)C[C@H]3CCCc2ccc(C(=O)N(C)C)c(Cl)c2)C(F)(F)F)c1 (single isomer, unassigned) [Example 17-1, 2-chloro-N,N-dimethyl-4-(3-((R or S)-6-((R or S)-3,3,3-trifluoro-2-hydroxy-2-(3-methoxyphenyl)propanoyl)-6-azaspiro[2.5]octan-1-yl)propyl)benzamide] |  |  |  |  |
| 35 | 6.40 |  | 7.60 |  | 128 |  | CN(C)C(=O)c1ccc(CCC[C@H]2CC23CCN(C(=O)[C@](O)(c2ccccc2)C(F)(F)F)CC3)cc1Cl (single isomer, unassigned) [Example 17-2, 2-chloro-N,N-dimethyl-4-(3-((S or R)-6-((R or S)-3,3,3-trifluoro-2-hydroxy-2-phenylpropanoyl)-6-azaspiro[2.5]octan-1-yl)propyl)benzamide] |  |  |  |  |
| 8 |  |  | 7.72 |  | 43 | No IP | COc1cccc([C@@](O)(C(=O)N2CCC3(CC2)C[C@H]3CCCc2ccc(C(=O)NC3CC3)c(Cl)c2)C(F)(F)F)c1 (single isomer, unassigned) [Example 17-3, 2-chloro-N-cyclopropyl-4-(3-((R or S)-6-((R or S)-3,3,3-trifluoro-2-hydroxy-2-(3-methoxyphenyl)propanoyl)-6-azaspiro[2.5]octan-1-yl)propyl)benzamide] |  |  |  |  |
| 8 |  |  | 7.42 |  | 74 | No IP | CN(C)C(=O)c1ccc(SC2CCC3(CC2)CCN(C(=O)C(O)(c2cc(Cl)cc(Cl)c2)C(F)(F)F)CC3)cc1Cl (single isomer, unassigned) [Example 19-2, 2-chloro-4-(3-((R or S)-2-(3,5-dichlorophenyl)-3,3,3-trifluoro-2-hydroxypropanoyl)-3-azaspiro[5.5]undecan-9-ylthio)-N,N-dimethylbenzamide] |  |  |  |  |
